Source: ChEMBL document CHEMBL3244389, “Cephalosporin degradations” (J Med Chem, 1977)

Tests used:
[1] = Retardation factor of the compound in deionized water at 1 g at pH 3.3 after 90 mins by TLC analysis; assay type: physicochemical; details: pH 3.3, 1.5 h
[2] = test system: Mus musculus; test: Toxicity in po dosed ICR mouse; assay type: organism-based; details: in vivo
[3] = Drug degradation in deionized water assessed as 3-hydroxy-4-methyl-2(5H)-thiophenone level at 100 mg at pH 3.3 after 90 mins by IR/TLC analysis; assay type: physicochemical; details: pH 3.3, 1.5 h
[4] = Drug degradation in deionized water assessed as 5,3-formyl-3,6-dihydro-6-phenyl-2,5(lH,4H)-pyrazinedione level at 100 mg at pH 3.3 after 90 mins by IR/TLC analysis; assay type: physicochemical; details: pH 3.3, 1.5 h
[5] = Drug degradation in oxygen-18 enriched water assessed as 5,3-formyl-3,6-dihydro-6-phenyl-2,5(lH,4H)-pyrazinedione level at 60 mg by mass spectroscopic analysis; details: in vivo
[6] = Drug recovery in Purdue-Wistar rat feces at 1.6 mg/ml, po after 24 hrs; details: faeces
[7] = Drug recovery in ICR mouse feces at 1.6 mg/ml, po after 24 hrs; details: faeces

Structure (SMILES): CC1=C(O)C(=O)SC1
- Rf [1]: 0.91

Structure (SMILES): CC1=C(C(=O)O)N2C(=O)[C@@H](NC(=O)[C@H](N)c3ccccc3)[C@H]2SC1.O [CEPHALEXIN]
- LD [2]: > 5000 mg/kg

Structure (SMILES): CC1CSC(C2NC(=O)C(c3ccccc3)NC2=O)N=C1C(=O)[O-].[Na+] (stereo not drawn)
- Stability [3]: Unstable
- Stability [4]: Unstable
- Stability [5]: Unstable

Structure (SMILES): O=CC1NC(=O)C(c2ccccc2)NC1=O (stereo not drawn)
- Rf [1]: 0.78

Structure (SMILES): CC1=C(C(=O)O)N2C(=O)[C@@H](NC(=O)[C@H](N)c3ccccc3)[C@H]2SC1 [CEPHALEXIN ANHYDROUS]
- dose excreted at 24 h [6]: 99%
- dose excreted at 24 h [7]: 99%
